The values that follow come from patent US8124624B2, “Substituted sulfonamide compounds” (Gruenenthal GmbH, priority 2008, dated 2012).

In one assay the target is T1, B1R of the rat (Rattus norvegicus, UniProt P97583).
T1 construct: expressed in transfected cells; host or cells: CHO K1 cells (rB1R cells)
T1 sequence (P97583 1-337): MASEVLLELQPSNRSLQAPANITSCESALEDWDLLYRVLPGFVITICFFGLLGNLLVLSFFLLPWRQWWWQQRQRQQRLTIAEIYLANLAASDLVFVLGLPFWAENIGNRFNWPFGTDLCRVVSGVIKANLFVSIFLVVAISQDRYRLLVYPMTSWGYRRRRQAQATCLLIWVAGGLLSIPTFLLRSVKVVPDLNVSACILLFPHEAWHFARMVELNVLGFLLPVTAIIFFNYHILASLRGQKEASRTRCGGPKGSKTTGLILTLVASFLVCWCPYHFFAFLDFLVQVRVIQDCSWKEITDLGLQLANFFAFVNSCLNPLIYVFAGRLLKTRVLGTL
The assay can be described thus: FLIPR Ca2+ influx assay, B1R antagonism, rat (rB1R CHO K1 cells). It is filed as cell-based. The following applies: test substance 10 μM; CHO K1 cells stably transfected with rat B1R; agonist Des-Arg9-bradykinin at EC80; % inhibition compared with maximum achievable inhibition; read-out: B1R antagonism, rat [10 μM] % inhibition. An outline of the steps:
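CHO K1 cells stably expressing human or rat B1R were loaded with Fluo-4, and Ca^2+ fluorescence was read on a FLIPR. After 10–20 min with test substance, agonist was added at EC80: Lys-Des-Arg^9-bradykinin for hB1R, Des-Arg^9-bradykinin for rB1R. % inhibition is relative to maximal inhibition; IC50 from multiple concentrations, n=2–3, N≥2.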

A further assay addresses T2, human B1R (Homo sapiens, UniProt P46663).
T2 construct: expressed in transfected cells; host or cells: CHO K1 cells (hB1R cells)
T2 sequence (P46663 1-353): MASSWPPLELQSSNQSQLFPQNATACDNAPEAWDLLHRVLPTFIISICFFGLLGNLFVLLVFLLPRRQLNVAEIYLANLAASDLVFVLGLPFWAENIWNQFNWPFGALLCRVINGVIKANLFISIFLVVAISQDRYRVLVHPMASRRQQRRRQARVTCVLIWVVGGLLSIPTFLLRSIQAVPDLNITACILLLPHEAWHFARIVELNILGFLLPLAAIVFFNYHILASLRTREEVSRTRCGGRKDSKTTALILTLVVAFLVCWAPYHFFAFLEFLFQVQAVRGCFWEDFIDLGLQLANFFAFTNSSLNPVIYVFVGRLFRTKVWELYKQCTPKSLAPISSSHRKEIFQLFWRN
The assay can be described thus: FLIPR Ca2+ influx assay, B1R antagonism, human (hB1R CHO K1 cells). It is filed as cell-based. The following applies: test substance 10 μM; CHO K1 cells stably transfected with human B1R; agonist Lys-Des-Arg9-bradykinin at EC80; % inhibition compared with maximum achievable inhibition; read-out: B1R antagonism, human [10 μM] % inhibition. The procedure: The agonistic or antagonistic action of substances can be quantified on the bradykinin receptor 1 (B1R) of the species human and rat using ectopically expressing cell lines (CHO K1 cells) and with the aid of a Ca^2+-sensitive dye (Fluo-4) using a fluorescent imaging plate reader (FLIPR). The indication in % activation is based on the Ca^2+ signal after addition of Lys-Des-Arg^9-bradykinin (0.5 nM) or Des-Arg^9-bradykinin (100 nM). Antagonists lead to suppression of the Ca^2+ influx after the addition of the agonist. % Inhibition compared with the maximum achievable inhibition is indicated.
The agonistic or antagonistic action of substances can be determined on the bradykinin receptor 1 (B1R) of the species human and rat using the following assay. According to this assay, the Ca^2+ influx through the channel is quantified with the aid of a Ca^2+-sensitive dye (Fluo-4 type, Molecular Probes Europe BV, Leiden, Netherlands) using a Fluorescent Imaging Plate Reader (FLIPR, Molecular Devices, Sunnyvale, USA).
Chinese hamster ovary cells (CHO K1 cells) which have been stably transfected with the human B1R gene (hB1R cells) or with the B1R gene of the rat (rB1R cells) are used. For functional studies, the cells are plated out on black 96-well plates having a clear base (BD Biosciences, Heidelberg, Germany or Greiner, Frickenhausen, Germany) in a density of 20,000-35,000 cells/well. The cells are incubated overnight at 37° C. and with 5% CO2 in culture medium (hB1R cells: Nutrient Mixture Ham's F12, Gibco Invitrogen GmbH, Karlsruhe, Germany or DMEM, Sigma-Aldrich, Taufkirchen, Germany; rB1R cells: D-MEM/F12, Gibco Invitrogen GmbH, Karlsruhe, Germany), with 10 vol. % FBS (fetal bovine serum, Gibco Invitrogen GmbH, Karlsruhe, Germany or PAN Biotech GmbH, Aidenbach, Germany).
On the following day, the cells are loaded for 60 minutes at 37° C. with 2.13 μM Fluo-4 (Molecular Probes Europe BV, Leiden, Netherlands) in HBSS buffer (Hank's buffered saline solution, Gibco Invitrogen GmbH, Karlsruhe, Germany) […] (Sigma-Aldrich, Taufkirchen, Germany) and 10 mM HEPES (Sigma-Aldrich, Taufkirchen, Germany). The plates are then washed twice with HBSS buffer, and HBSS buffer additionally containing 0.1% BSA (bovine serum albumin; Sigma-Aldrich, Taufkirchen, Germany), 5.6 mM glucose and 0.05% gelatin (Merck KGaA, Darmstadt, Germany) is added to the plates. After incubation for a further 20 minutes at room temperature, the plates are inserted into the FLIPR for Ca^2+ measurement.
Alternatively, washing is carried out with buffer A (15 mM HEPES, 80 mM NaCl, 5 mM KCl, 1.2 mM CaCl2, 0.7 mM MgSO4, 2 g/l glucose, 2.5 mM probenecid) followed by loading with buffer A with added 2.5 μM Fluo-4 and 0.025% Pluronic F127 (Sigma-Aldrich, Taufkirchen, Germany). The cells are then washed twice with buffer A and incubated for 30 minutes at room temperature with buffer A additionally containing 0.05% BSA and 0.05% gelatin and are then inserted into the FLIPR for Ca^2+ measurement.
The Ca^2+-dependent fluorescence is measured before and after the addition of substances (λex=488 nm, λem=540 nm). Quantification is carried out by measuring the highest fluorescence intensity (FC, fluorescence counts) over time.
The FLIPR protocol consists of two substance additions. Test substances (10 μM) are first pipetted onto the cells and the Ca^2+ influx is compared with the control (hB1R: Lys-Des-Arg^9-bradykinin >=50 nM; rB1R: Des-Arg^9-bradykinin 10 μM). This gives the activation in %, based on the Ca^2+ signal after addition of Lys-Des-Arg^9-bradykinin (>=50 nM) or Des-Arg^9-bradykinin (10 μM). After 10-20 minutes' incubation, Lys-Des-Arg^9-bradykinin (hB1R) or Des-Arg^9-bradykinin (rB1R) is applied in the concentration of the EC80, and the influx of Ca^2+ is likewise determined. Antagonists lead to suppression of the Ca^2+ influx. The % inhibition compared with the maximum achievable inhibition is calculated. […]

As to `CN(C)CCC1(c2cccnc2)CCN(C(=O)COCC2CCc3ccccc3N2S(=O)(=O)c2ccc(Cl)c(Cl)c2)CC1` (centres unmarked) [Example 12, 2-((1-(3,4-Dichlorophenylsulfonyl)-1,2,3,4-tetrahydroquinolin-2-yl)methoxy)-1-(4-(2-(dimethylamino)ethyl)-4-(pyridin-3-yl)piperidin-1-yl)ethanone], the inhibition at 10 µM was 90% at B1R of the rat and 103% on human B1R.
Turning to `COc1cc(C)c(S(=O)(=O)N(C)CCOCC(=O)N2CCC(CCCN3CCCC3)(c3cccnc3)CC2)c(C)c1` [Example 13, 4-Methoxy-N,2,6-trimethyl-N-(2-(2-oxo-2-(4-(pyridin-3-yl)-4-(3-(pyrrolidin-1-yl)propyl)piperidin-1-yl)ethoxy)ethyl)benzenesulfonamide], the inhibition at 10 µM on B1R of the rat was found to be 101%; on human B1R, 97%.
For `O=C(CC1CCCCN1S(=O)(=O)c1cccc(C(F)(F)F)c1)N1CCC(CCCN2CCCC2)(c2cccnc2)CC1` (centres unmarked) [Example 14, 1-(4-(Pyridin-3-yl)-4-(3-(pyrrolidin-1-yl)propyl)piperidin-1-yl)-2-(1-(3-(trifluoromethyl)phenylsulfonyl)piperidin-2-yl)ethanone], in that order: 64% and 35%.
Take `Cc1cc(S(=O)(=O)N2CCCCC2CCC(=O)N2CCC(CCCN3CCCC3)(c3cccnc3)CC2)c(C)cc1Cl` (centres unmarked) [Example 15, 3-(1-(4-Chloro-2,5-dimethylphenylsulfonyl)piperidin-2-yl)-1-(4-(pyridin-3-yl)-4-(3-(pyrrolidin-1-yl)propyl)piperidin-1-yl)propan-1-one]: the results for the inhibition at 10 µM at B1R of the rat and at human B1R were 76% and 84%, respectively.
On to `COc1cc(C)c(S(=O)(=O)N2CCCCC2COCC(=O)N2CCC(CCCN3CCCC3)(c3cccnc3)CC2)c(C)c1` (centres unmarked) [Example 16, 2-((1-(4-Methoxy-2,6-dimethylphenylsulfonyl)piperidin-2-yl)methoxy)-1-(4-(pyridin-3-yl)-4-(3-(pyrrolidin-1-yl)propyl)piperidin-1-yl)ethanone], for which the inhibition at 10 µM at B1R of the rat turned out to be 102%; on human B1R, 97%.
In the same order, the values of `O=C(CC(NS(=O)(=O)c1ccc2ccccc2c1)c1ccccc1)N1CCC(CCCN2CCCC2)(c2cccnc2)CC1` (centres unmarked) [Example 17, N-(3-Oxo-1-phenyl-3-(4-(pyridin-3-yl)-4-(3-(pyrrolidin-1-yl)propyl)piperidin-1-yl)propyl)naphthalene-2-sulfonamide] are 81% and 94%.
Turning to `O=C(COCC1CCc2ccccc2N1S(=O)(=O)c1ccc(Cl)c(Cl)c1)N1CCC(CCCN2CCCC2)(c2cccnc2)CC1` (centres unmarked) [Example 18, 2-((1-(3,4-Dichlorophenylsulfonyl)-1,2,3,4-tetrahydroquinolin-2-yl)methoxy)-1-(4-(pyridin-3-yl)-4-(3-(pyrrolidin-1-yl)propyl)piperidin-1-yl)ethanone], the inhibition at 10 µM at B1R of the rat was 102%; on human B1R it was 62%.
For `Cc1cc(S(=O)(=O)N2CCCCC2CCC(=O)N2CCC(CCCN(C)C)(c3cccnc3)CC2)c(C)cc1Cl` (centres unmarked) [Example 19, 3-(1-(4-Chloro-2,5-dimethylphenylsulfonyl)piperidin-2-yl)-1-(4-(3-(dimethylamino)propyl)-4-(pyridin-3-yl)piperidin-1-yl)propan-1-one], in that order: 98% and 82%.
For `CN(C)CCCC1(c2cccnc2)CCN(C(=O)CC(NS(=O)(=O)c2ccc3ccccc3c2)c2ccccc2)CC1` (centres unmarked) [Example 20, N-(3-(4-(3-(Dimethylamino)propyl)-4-(pyridin-3-yl)piperidin-1-yl)-3-oxo-1-phenylpropyl)naphthalene-2-sulfonamide], in that order: 94% and 57%.
Regarding `CN(C)CCCC1(c2cccnc2)CCN(C(=O)COCC2CCc3ccccc3N2S(=O)(=O)c2ccc(Cl)c(Cl)c2)CC1` (centres unmarked) [Example 21, 2-((1-(3,4-Dichlorophenylsulfonyl)-1,2,3,4-tetrahydroquinolin-2-yl)methoxy)-1-(4-(3-(dimethylamino)propyl)-4-(pyridin-3-yl)piperidin-1-yl)ethanone], the inhibition at 10 µM at B1R of the rat was found to be 98%; on human B1R it was 56%.
As for `COc1cc(C)c(S(=O)(=O)N2CCCCC2COCC(=O)N2CCC(CCCN(C)C)(c3cccnc3)CC2)c(C)c1` (centres unmarked) [Example 22, 1-(4-(3-(Dimethylamino)propyl)-4-(pyridin-3-yl)piperidin-1-yl)-2-((1-(4-methoxy-2,6-dimethylphenylsulfonyl)piperidin-2-yl)methoxy)ethanone], the inhibition at 10 µM turned out to be 102% at B1R of the rat and 98% on human B1R.
For `COc1cc(C)c(S(=O)(=O)N(C)CCOCC(=O)N2CCC(CCCN(C)C)(c3cccnc3)CC2)c(C)c1` [Example 23, N-(2-(2-(4-(3-(Dimethylamino)propyl)-4-(pyridin-3-yl)piperidin-1-yl)-2-oxoethoxy)ethyl)-4-methoxy-N,2,6-trimethylbenzenesulfonamide], in that order: 101% and 100%.
For `CN(C)CCCC1(c2cccnc2)CCN(C(=O)CC2CCCCN2S(=O)(=O)c2cccc(C(F)(F)F)c2)CC1` (centres unmarked) [Example 24, 1-(4-(3-(Dimethylamino)propyl)-4-(pyridin-3-yl)piperidin-1-yl)-2-(1-(3-(trifluoromethyl)phenylsulfonyl)piperidin-2-yl)ethanone], in that order: 60% and 38%.

The term inhibition denotes the drop in the measured response relative to a control, in per cent.
